# Experimental data as given in ChEMBL document CHEMBL1153711, “Synthesis and antimycobacterial evaluation of novel 5,6-dimethoxy-1-oxo-2,5-dihydro-1H-2-indenyl-5,4-substituted phenyl methanone analogues” (Bioorg Med Chem Lett, 2009).
# Test system: Mycobacterium tuberculosis
# Test: Antimycobacterial activity against isoniazid-resistant Mycobacterium tuberculosis by agar dilution method
# Type: functional
row,Structure (SMILES),MIC [µM]
1,COc1cc2c(cc1OC)C(=O)C(C(=O)c1ccccc1Cl)C2 (stereo not drawn),3.72
2,COc1cc2c(cc1OC)C(=O)C(C(=O)c1ccc(Br)cc1)C2 (stereo not drawn),11.7
3,COc1cc2c(cc1OC)C(=O)C(C(=O)c1cc(OC)c(OC)c(OC)c1)C2 (stereo not drawn),> 6.25
4,COc1cc2c(cc1OC)C(=O)C(C(=O)c1ccc(F)cc1)C2 (stereo not drawn),0.1
5,COc1ccc(C(=O)C2Cc3cc(OC)c(OC)cc3C2=O)cc1OC (stereo not drawn),> 6.25
6,COc1cc2c(cc1OC)C(=O)C(C(=O)c1ccc(C#N)cc1)C2 (stereo not drawn),> 6.25
7,COc1ccc(C(=O)C2Cc3cc(OC)c(OC)cc3C2=O)cc1 (stereo not drawn),> 6.25
8,COc1cc2c(cc1OC)C(=O)C(C(=O)c1ccccc1)C2 (stereo not drawn),11.6
9,COc1cc2c(cc1OC)C(=O)C(C(=O)c1ccc(N(C)C)cc1)C2 (stereo not drawn),8.78
10,COc1cc2c(cc1OC)C(=O)C(C(=O)c1cccc([N+](=O)[O-])c1)C2 (stereo not drawn),8.72
11,COc1cc2c(cc1OC)C(=O)C(C(=O)c1c(Cl)cccc1Cl)C2 (stereo not drawn),4.96
12,NNC(=O)c1ccncc1 [ISONIAZID],11.6
13,COc1cc2c(cc1OC)C(=O)C(C(=O)c1ccc(Cl)cc1)C2 (stereo not drawn),8.2
